Reference: patent publication US9457044B2, “Methods and compositions for wound healing” (CoDa Therapeutics, Inc., priority 2006, dated 2016)

Assays:
TGF-β1 = experiment: Immunostaining for TGF-β1 at wound sites; format: in vivo, mice; conditions: 2 days
Protocol: (§1) Male, 8 week old, ICR mice were used in the following experiments. All the mice were kept under specific pathogen-free conditions in an environmentally controlled clean room at University College London and all the experiments were carried out under UK Home Office regulations. Mice were anaesthetized by halothane inhalation. Four full-thickness excisional wounds of 6 mm diameter were made on the shaved back on either side of the dorsal midline with a 6 mm biopsy punch (Kai Industries). To each pair of wounds a single topical application of 50 μl of 1 μM Cx43 as ODN (SEQ. ID No. 2) (Sigma-Genosys) in 30% Pluronic F-127 gel (Sigma-Aldrich), chilled on ice, was made to one wound, and an identical application of 1 μM sense control sODNs was made to the other. […] R. and Becker, D. L. (2003). Targeting connexin 43 expression accelerates the rate of wound repair. Curr Biol 13, 1697-703). Each wound region was digitally photographed at the indicated time intervals, and the areas of the wounds were calculated. All wound areas were expressed as percentages of the initial wound areas. In some series of experiments, wounds and their surrounding area, including the scab and epithelial margins, were harvested with an 8 mm biopsy punch (Kai Industries) at the indicated time intervals after mice were killed with an overdose of chloroform. A minimum of eight mice were used for each time point examined. […]

collagen type 1α1 = experiment: Real-Time PCR of Col1α1 at wound sites; set-up: species or system mice; conditions: mouse, in vivo
Protocol: as §1, with “areas.” for “areas. In some series of experiments, wounds and their surrounding area, including the scab and epithelial margins, were harvested with an 8 mm biopsy punch (Kai Industries) at the indicated time intervals after mice were killed with an overdose of chloroform. A minimum of eight mice were used for each time point examined.”
Gene specific primers and probe were obtained as TaqMan® Gene Expression Assays (Applied Biosystems) for Cx43, Ccl2, Co1α1, TNFα and TGFβ1. […] Each sample was analyzed in duplicate. […]

[1] = test system: F4/80-positive macrophages; experiment: Macrophage recruitment into wound site (F4/80 immunohistochemistry); format: in vivo, mice
Protocol: as §1, with “areas.” for “areas. In some series of experiments, wounds and their surrounding area, including the scab and epithelial margins, were harvested with an 8 mm biopsy punch (Kai Industries) at the indicated time intervals after mice were killed with an overdose of chloroform. A minimum of eight mice were used for each time point examined.”
(§2) A treatment-blinded observer counted MPO-positive neutrophils and F4/80-positive macrophages in the wound bed (defined as the area surrounded by unwounded skin, fascia, regenerated epidermis, and eschar) in 3 random high-power fields of 0.332 mm^2. […]

blood vessels = experiment: Angiogenesis at wound sites (von Willebrand factor, CD31, isolectinB staining); format: in vivo, mice
Protocol: Male, 8 week old, ICR mice were used in the following experiments. All the mice were kept under specific pathogen-free conditions in an environmentally controlled clean room at University College London and all the experiments were carried out under UK Home Office regulations. Mice were anaesthetized by halothane inhalation. Four full-thickness excisional wounds of 6 mm diameter were made on the shaved back on either side of the dorsal midline with a 6 mm biopsy punch (Kai Industries). To each pair of wounds a single topical application of 50 μl of 1 μM Cx43 as ODN (SEQ. ID No. 2) (Sigma-Genosys) in 30% Pluronic F-127 gel (Sigma-Aldrich), chilled on ice, was made to one wound, and an identical application of 1 μM sense control sODNs was made to the other. […] R. and Becker, D. L. (2003). Targeting connexin 43 expression accelerates the rate of wound repair. Curr Biol 13, 1697-703). Each wound region was digitally photographed at the indicated time intervals, and the areas of the wounds were calculated. All wound areas were expressed as percentages of the initial wound areas. In some series of experiments, wounds and their surrounding area, including the scab and epithelial margins, were harvested with an 8 mm biopsy punch (Kai Industries) at the indicated time intervals after mice were killed with an overdose of chloroform. A minimum of eight mice were used for each time point examined.
Wound tissues were fixed in 4% formaldehyde buffered with PBS, and embedded in paraffin. Sections ([…] thick) were subjected to hematoxylin and eosin staining or immunostaining. Measurement of granulation tissue area in H&E was performed using Improvision Openlab™ 4.0.2 software (Improvision). For immunohistochemistry, deparaffinized sections were treated with endogenous peroxidase blocking reagent (Dako Cytomation A/S) and proteinase K (Dako Cytomation A/S) for 20 minutes and 6 minutes at room temperature, respectively. They were then incubated with rabbit antimyeloperoxidase (MPO) polyclonal antibody (NeoMarkers) diluted 1:200, rat anti-mouse F4/80 monoclonal antibody (mAb) (Abcom Limited) diluted 1:400 or rat antimouse CD31 (platelet endothelial cell adhesion molecule 1, PECAM-1) mAb (PharMingen) or rabbit anti-mouse TGF-β1 polyclonal antibody (Santa Cruz Biotechnology, Inc) both diluted 1:200 overnight at 4° C. after blocking with 15% skimmed milk for 1 hour at room temperature. In addition, some sections were reacted with phalloidin-tetramethylrhodamine B isothiocyanate (Sigma-Aldrich) diluted 1:500 for 1 hour at room temperature. The antibodies were appropriately diluted in Antibody Diluent with Background Reducing Components (Dako Cytomation A/S). The sections reacted with anti-MPO antibody and anti TGF-β1 antibody were stained with EnVision+™ (Dako Cytomation A/S) to enhance the signal, according to the manufacturer's instructions. The sections that had been reacted with anti-F4/80 and anti-CD31 antibodies were incubated with biotinylated rabbit anti-rat immunoglobulin (Dako Cytomation A/S) diluted 1:200 for 1 hour at 37° C. The signal was then enhanced using the Catalyzed Signal Amplification System® (Dako Cytomation A/S) according to the manufacturer's instructions. Thereafter, counterstaining was performed with methyl green (Dako Cytomation A/S) followed by MPO, TGF-β1, F4/80, and CD31 staining or 4′,6-diamidino-2-phenylindole (DAPI) followed by phalloidin staining. […]

fibroblast like cells = experiment: Fibroblast-like cell count at wound margin (rhodamine phalloidin/DAPI); format: in vivo, mice; conditions: 2 day wounds; P<0.01
Protocol: as §1, with “areas.” for “areas. In some series of experiments, wounds and their surrounding area, including the scab and epithelial margins, were harvested with an 8 mm biopsy punch (Kai Industries) at the indicated time intervals after mice were killed with an overdose of chloroform. A minimum of eight mice were used for each time point examined.”
as §2

Cx43 protein = Cx43 protein knockdown in confluent fibroblast cultures; format: cell-based; conditions: within two hours
Protocol: Swiss 3T3 fibroblasts were grown in Dulbecco's modified Eagle's medium (DMEM; Gibco) supplemented with 10% fetal calf serum (Labtech) and 1% penicillinstreptomycin solution (Sigma, Poole) in a 5% CO2 incubator at 37° C. Unless otherwise stated, the cells were maintained in this medium for most experiments. The cells were passaged by trypsinization and used at passages 6-10 at a confluency of Z 90%. Cells were plated on 13 mm glass coverslips in 24-well dishes (Nunc) with 4−5×10^5 cells per well containing 1 ml of medium. Cells reached confluency after 72 hours and were then used for experimentation.
In order to knock down Cx43 expression in the fibroblasts the media was replaced with serum-free DMEM containing either 20 μM asODNs or 20 μM control sODNs. This was incubated for two hours before being replaced with serum containing DMEM. The wounding assay was then carried out as above.

hydroxyproline = experiment: Hydroxyproline analysis of collagen content of wound area; set-up: species or system mice; conditions: mouse, in vivo
Protocol: as §1, with “Targeting connexin 43 expression accelerates the rate of wound repair. Curr Biol 13, 1697-703).” left out, “areas.” for “areas. In some series of experiments, wounds and their surrounding area, including the scab and epithelial margins, were harvested with an 8 mm biopsy punch (Kai Industries) at the indicated time intervals after mice were killed with an overdose of chloroform. A minimum of eight mice were used for each time point examined.”
The collagen content of the wound area was assessed by determining the amount of hydroxyproline (HP), a major component of collagen. […] Concentrations of protein were measured using a BCA™ Protein Assay Kit (PIERCE Biotechnology Inc.), and the amounts of HP were determined with Sircol™ Soluble Collagen Assay Kit (Biocolor Ltd.). The data were expressed as amounts of HP/total protein (ng/μg) for each sample.

Sequence: GTAATTGCGGCAGGAGGAATTGTTTCTGTC (antisense GTAATTGCGGCAGGAGGAATTGTTTCTGTC; in Pluronic F-127 gel, further chemistry not given here) [Cx43 asODN]
- TGF-β1 positive elongated fibroblast-like cells at the dermal margins of the wound (TGF-β1): an additional TGF-β1 positive cell type could be seen in large numbers
- TGF-β1 staining in the epidermis versus control wound epidermis (TGF-β1): much more strongly
- collagen type 1α1 in treated wounds (collagen type 1α1): increased
- reduction of number of macrophages versus control sODN-treated wounds ([1]; day 2): 33%
- reduction of number of macrophages versus control sODN-treated wounds ([1]; day 7): 32%
- blood vessel staining in granulation tissue (blood vessels; 5 days, none in control wounds): staining was seen in the edges of the granulation tissue of all
- quantified blood vessel staining, treated versus controls (blood vessels; 7 days P=0.0019, 10 days P=0.015): significantly more staining in controls
- size of blood vessels and extent of staining, treated versus control (blood vessels; 14 days): very similar
- wounds with fine blood vessels throughout the entire granulation tissue (blood vessels; day 7): five out of six
- enhancement of the rate of wound maturation (blood vessels; mouse, in vivo): 2 to 3 days
- number of elongated fibroblast like cells at the wound margin (mean per field) (fibroblast like cells): 99.2
- knockdown of Cx43 protein (Cx43 protein): 95%
- hydroxyproline in treated wounds (hydroxyproline): increased
